Data from patent US20020107197A1, “Ligands for G protein coupled receptors and methods of using them” (priority 2000, published 2002).

Columns and labels:
[1] = biological target: T1, GPR4 (Homo sapiens, UniProt P46093); assay: DNA synthesis ([3H]thymidine incorporation) in GPR4-infected Swiss 3T3 cells; type: cell-based; conditions: 3 μM, GPR4-infected Swiss 3T3 cells
T1 construct: were used to generate full length GPR4, which was digested with EcoRI and Xba I and cloned into the pBs3HA vector; expressed in transfected cells
T1 sequence (P46093 whole entry): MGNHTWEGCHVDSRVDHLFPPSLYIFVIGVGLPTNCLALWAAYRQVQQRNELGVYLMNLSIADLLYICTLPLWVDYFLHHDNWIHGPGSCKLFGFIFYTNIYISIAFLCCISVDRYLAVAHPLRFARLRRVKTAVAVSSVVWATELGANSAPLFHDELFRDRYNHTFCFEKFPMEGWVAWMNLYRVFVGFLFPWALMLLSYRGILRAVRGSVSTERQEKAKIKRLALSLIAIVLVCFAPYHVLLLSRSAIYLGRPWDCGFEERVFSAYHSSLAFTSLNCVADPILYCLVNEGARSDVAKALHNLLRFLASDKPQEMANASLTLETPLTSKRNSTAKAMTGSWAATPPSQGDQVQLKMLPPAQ
Protocol: The effect of SPC and LPC on DNA synthesis was measured using [^3H] thymidine incorporation. Briefly, GPR4-ires-GFP- and GFP-Swiss 3T3 cells were plated in 96-well plates, serum-starved for 24 h, and treated with SPC, LPC, or other lipids in serum-free DMEM for 24 h. Cells were incubated with 0.75 μCi/ml [^3H]thymidine in serum-free DMEM for the last 18 h. Cells were harvested onto filter papers presoaked in 1% polyethylenimine using the automated cell harvester HARVEST 96. Incorporated [^3H]thymidine was counted in a 1450 Microbeta Trilux Liquid Scintillation and Luminescence Counter (Perkin-Elmer-Wallac, Inc.).

[2] = biological target: T2, OGR1 (Homo sapiens, UniProt Q15743); assay: SPC binding affinity for OGR1
T2 construct: expressed in transfected cells
T2 sequence (Q15743 whole entry, species assumed): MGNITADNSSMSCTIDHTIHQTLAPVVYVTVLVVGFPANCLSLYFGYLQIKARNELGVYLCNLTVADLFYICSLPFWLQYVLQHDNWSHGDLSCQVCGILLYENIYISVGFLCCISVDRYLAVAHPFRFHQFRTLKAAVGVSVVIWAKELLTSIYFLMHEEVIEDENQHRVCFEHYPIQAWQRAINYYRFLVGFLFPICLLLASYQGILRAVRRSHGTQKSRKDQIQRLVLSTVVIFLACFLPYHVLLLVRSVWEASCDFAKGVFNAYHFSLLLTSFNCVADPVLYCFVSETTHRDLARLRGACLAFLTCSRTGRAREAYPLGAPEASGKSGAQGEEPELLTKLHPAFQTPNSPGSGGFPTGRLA

[3] = tested on: HEY ovarian cancer cells; assay: DNA synthesis / growth of HEY ovarian cancer cells with SPC and phage preparations; type: cell-based, human; conditions: SPC 10 μM
Protocol: To determine if these selected phage clones were capable of blocking a biological effect of SPC, we mixed phage preparations with SPC. After a 30 min incubation, this mixture was added to HEY cells and its effect on SPC-induced cell proliferation was tested. If a phage clone was carrying a specific sequence which binds to SPC, the addition of the phage to SPC could block the effect of SPC on HEY cells.

[4] = tested on: GPR4; assay: GPR4 expression in Jurkat cells by real-time quantitative RT-PCR; type: cell-based, human; conditions: 0.1 and 1 μM LPC, up to 24 hours
Protocol: (§1) Jurkat cells were treated with 0.1 and 1 μM LPC for various times (1, 2, 6, and 24 hours). At each time point, cells were collected and total RNA was extracted. Real-time quantitative PCR was utilized to determine relative amounts of GPR4 (shown in FIG. 1A and TDAG8 (shown in FIG. 1B) expressed under each condition. All PCR reactions were performed in triplicate.
(§2) In one scheme, total RNA is extracted from tissues using the RNeasy Total RNA System (Qiagen, Valencia, Calif.). One to five micrograms of total RNA are reverse transcribed using Superscript II RT (Gibco BRL, Rockville, Md.). Eight nanograms of derived cDNA are used as a template for real-time quantitative SYBR Green I PCR. Specific primers, that have already been established and used under these same conditions, are used for each individual receptor, with GAPDH being amplified in a separate tube as a housekeeping gene. The primers for GPR4 (Genbank accession number U2105 1) are 5′-[…]-3′ [SEQ ID NO. 1] and 5′-TCCAGTTGTCGTGGTGCAG-3′ [SEQ ID NO. 2] […] Amplified product is detected by measurement of SYBR Green I, which is added to the initial reaction mixture. […] The results are expressed as a fold-change in receptor expression levels compared to a baseline sample.
(§3) Jurkat cells were treated with 0.1 and 1 μM LPC for up to 24 hours followed by expression analysis of GPR4 and TDAG8 levels with real-time quantitative RT-PCR.

[5] = tested on: TDAG8; assay: TDAG8 expression in Jurkat cells by real-time quantitative RT-PCR; type: cell-based, human; conditions: 0.1 and 1 μM LPC, up to 24 hours
Protocol: as §1, §2, §3

[6] = tested on: cells; conditions: cited from earlier work

For `CCCCCCCCCCCCCCCC(=O)OC[C@@H](O)COP(=O)([O-])OCC[N+](C)(C)C` [16:0-LPC], the “increase of [3H]thymidine incorporation” value [1] was 1.6 fold.

In the case of `CCCCCCCCCCCCC/C=C/[C@@H](O)[C@@H](N)COP(=O)([O-])OCC[N+](C)(C)C` [SPC, Sphingosylphosphorylcholine], the Kd [2] is reported as 33 nM and the “effect on DNA synthesis in HEY cells” value [3] is reported as “inhibited DNA synthesis”.

For lysophosphatidylcholine [LPC], the “regulation of GPR4 expression” value [4] is given as “time- and dose-dependent up regulation”, the “regulation of TDAG8 expression” value [5] is given as “time- and dose-dependent up regulation” and the “concentration at which cells are lysed” value [6] is given as greater than 30 µM.
